# Measurements from ChEMBL document CHEMBL1201862, “PubChem BioAssay data set” (2004).
#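 Following 48 hours of exposure in 96-well plates, responses at five concentrations were used to interpolate endpoints linearly. GI50 = concentration required for 50% inhibition of growth.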 Active and inactive are the calls of the source. Rule as the data show it: active = GI50 up to about 1.1 µM and inactive = higher.
# Experiments:
# Experiment in all cases: growth of human tumour cells (NCI), 48 h
# UACC-257 = system: UACC-257
# SK-MEL-2 = system: SK-MEL-2
# OVCAR-8 = system: OVCAR-8
# HCT-116 = system: HCT-116
# M19-MEL = system: M19-MEL
# UACC-62 = system: UACC-62
# DMS-273 = system: DMS-273
# LOX IMVI = system: LOX IMVI
# SF-539 = system: SF-539
# SK-MEL-5 = system: SK-MEL-5
# NCI/ADR-RES = system: NCI/ADR-RES
# CAKI-1 = system: CAKI-1
# KM12 = system: KM12
# MCF7 = system: MCF7
# SW-620 = system: SW-620
# CCRF-CEM = system: CCRF-CEM
# DLD-1 = system: DLD-1
# OVCAR-5 = system: OVCAR-5
# KM-20L2 = system: KM-20L2
# HOP-92 = system: HOP-92
# SF-295 = system: SF-295
# HOP-18 = system: HOP-18
# A498 = system: A498
# DMS-114 = system: DMS-114
# HCC 2998 = system: HCC 2998
# UO-31 = system: UO-31
# U-251 = system: U-251
# A549 = system: A549
# OVCAR-3 = system: OVCAR-3
# SK-MEL-28 = system: SK-MEL-28
# NCI-H460 = system: NCI-H460
# SF-268 = system: SF-268
# RPMI-8226 = system: RPMI-8226
# SNB-19 = system: SNB-19
# HOP-62 = system: HOP-62
# SN12C = system: SN12C
# HCT-15 = system: HCT-15
# MOLT-4 = system: MOLT-4
# EKVX = system: EKVX
# NCI-H522 = system: NCI-H522
# Malme-3M = system: Malme-3M
# SNB-75 = system: SNB-75
# HL-60 = system: HL-60
# HT-29 = system: HT-29
# RXF 393 = system: RXF 393
# NCI-H226 = system: NCI-H226
# IGROV-1 = system: IGROV-1
# SK-OV-3 = system: SK-OV-3
# XF498 = system: XF498
# OVCAR-4 = system: OVCAR-4
# K562 = system: K562
# SNB-78 = system: SNB-78
# NCI-H23 = system: NCI-H23
# COLO 205 = system: COLO 205
# TK-10 = system: TK-10
# SR = system: SR
# 786-0 = system: 786-0
# ACHN = system: ACHN
# LXFL 529 = system: LXFL 529
# M14 = system: M14
smiles,measurement,setting,value
COC1=C(C)C(=O)C2=C(C1=O)[C@@H]1[C@@H]3Cc4c(OC(=O)CO)c(C)c(OC)c(O)c4[C@H](CNC(=O)C(C)=O)N3[C@@H](C#N)[C@H](C2)N1C,GI50,UACC-257,< 15.2 nM (active)
same,GI50,SK-MEL-2,< 18.9 nM (active)
same,GI50,OVCAR-8,24 nM (active)
same,GI50,HCT-116,57.3 nM (active)
same,GI50,M19-MEL,< 17.1 nM (active)
same,GI50,UACC-62,< 20.8 nM (active)
same,GI50,DMS-273,18.9 nM (active)
same,GI50,LOX IMVI,< 10 nM (active)
same,GI50,SF-539,52.8 nM (active)
same,GI50,SK-MEL-5,15.4 nM (active)
same,GI50,NCI/ADR-RES,1080 nM (active)
same,GI50,CAKI-1,< 10 nM (active)
same,GI50,KM12,108 nM (active)
same,GI50,MCF7,33.2 nM (active)
same,GI50,SW-620,< 16.4 nM (active)
same,GI50,CCRF-CEM,27.1 nM (active)
same,GI50,DLD-1,11.5 nM (active)
same,GI50,OVCAR-5,98 nM (active)
same,GI50,KM-20L2,46.6 nM (active)
same,GI50,HOP-92,< 11.9 nM (active)
same,GI50,SF-295,199 nM (active)
same,GI50,HOP-18,38.2 nM (active)
same,GI50,A498,95.9 nM (active)
same,GI50,DMS-114,< 10 nM (active)
same,GI50,HCC 2998,47.2 nM (active)
same,GI50,UO-31,73.8 nM (active)
same,GI50,U-251,29 nM (active)
same,GI50,A549,366 nM (active)
same,GI50,OVCAR-3,< 15.3 nM (active)
same,GI50,SK-MEL-28,71.3 nM (active)
same,GI50,NCI-H460,107 nM (active)
same,GI50,SF-268,55.2 nM (active)
same,GI50,RPMI-8226,< 14.2 nM (active)
same,GI50,SNB-19,41.4 nM (active)
same,GI50,HOP-62,221 nM (active)
same,GI50,SN12C,13 nM (active)
same,GI50,HCT-15,< 10 nM
same,GI50,MOLT-4,28.6 nM (active)
same,GI50,EKVX,< 40.5 nM (active)
same,GI50,NCI-H522,< 10 nM (active)
same,GI50,Malme-3M,56.2 nM (active)
same,GI50,SNB-75,< 35.3 nM (active)
same,GI50,HL-60,< 13.5 nM (active)
same,GI50,HT-29,18.2 nM (active)
same,GI50,RXF 393,18.4 nM (active)
same,GI50,NCI-H226,87.1 nM (active)
same,GI50,IGROV-1,17.7 nM (active)
same,GI50,SK-OV-3,415 nM (active)
same,GI50,XF498,< 10 nM (active)
same,GI50,OVCAR-4,106 nM (active)
same,GI50,K562,< 10 nM (active)
same,GI50,SNB-78,< 13 nM (active)
same,GI50,NCI-H23,< 11 nM (active)
same,GI50,COLO 205,< 15.5 nM (active)
CC(=O)Nc1ccc(S(=O)(=O)Nc2cnc3ccccc3n2)cc1,GI50,UACC-257,> 100000 nM (inactive)
same,GI50,TK-10,> 100000 nM (inactive)
same,GI50,SK-MEL-2,> 100000 nM (inactive)
same,GI50,OVCAR-8,> 100000 nM (inactive)
same,GI50,M19-MEL,> 100000 nM (inactive)
same,GI50,UACC-62,> 100000 nM (inactive)
same,GI50,SR,> 100000 nM (inactive)
same,GI50,DMS-273,> 100000 nM (inactive)
same,GI50,LOX IMVI,> 100000 nM (inactive)
same,GI50,786-0,> 100000 nM (inactive)
same,GI50,SF-539,> 100000 nM (inactive)
same,GI50,SK-MEL-5,> 100000 nM (inactive)
same,GI50,CAKI-1,> 100000 nM (inactive)
same,GI50,KM12,> 100000 nM (inactive)
same,GI50,SW-620,> 100000 nM (inactive)
same,GI50,CCRF-CEM,> 100000 nM (inactive)
same,GI50,DLD-1,> 100000 nM (inactive)
same,GI50,OVCAR-5,> 100000 nM (inactive)
same,GI50,KM-20L2,> 100000 nM (inactive)
same,GI50,HOP-92,> 100000 nM (inactive)
same,GI50,SF-295,> 100000 nM (inactive)
same,GI50,HOP-18,> 100000 nM (inactive)
same,GI50,A498,> 100000 nM (inactive)
same,GI50,DMS-114,> 100000 nM (inactive)
same,GI50,HCC 2998,> 100000 nM (inactive)
same,GI50,UO-31,> 100000 nM (inactive)
same,GI50,U-251,> 100000 nM (inactive)
same,GI50,A549,> 100000 nM (inactive)
same,GI50,OVCAR-3,> 100000 nM (inactive)
same,GI50,SK-MEL-28,> 100000 nM (inactive)
same,GI50,NCI-H460,> 100000 nM (inactive)
same,GI50,SF-268,> 100000 nM (inactive)
same,GI50,RPMI-8226,> 100000 nM (inactive)
same,GI50,SNB-19,> 100000 nM (inactive)
same,GI50,HOP-62,> 100000 nM (inactive)
same,GI50,SN12C,> 100000 nM (inactive)
same,GI50,HCT-15,> 100000 nM
same,GI50,MOLT-4,> 100000 nM (inactive)
same,GI50,EKVX,> 100000 nM (inactive)
same,GI50,NCI-H522,> 100000 nM (inactive)
same,GI50,Malme-3M,> 100000 nM (inactive)
same,GI50,SNB-75,63500 nM (inactive)
same,GI50,HL-60,> 100000 nM (inactive)
same,GI50,HT-29,> 100000 nM (inactive)
same,GI50,ACHN,> 100000 nM (inactive)
same,GI50,RXF 393,> 100000 nM (inactive)
same,GI50,NCI-H226,> 100000 nM (inactive)
same,GI50,IGROV-1,> 100000 nM (inactive)
same,GI50,SK-OV-3,> 100000 nM (inactive)
same,GI50,XF498,> 100000 nM (inactive)
same,GI50,OVCAR-4,> 100000 nM (inactive)
same,GI50,K562,> 100000 nM (inactive)
same,GI50,LXFL 529,> 100000 nM (inactive)
same,GI50,M14,> 100000 nM (inactive)
same,GI50,NCI-H23,> 100000 nM (inactive)
same,GI50,COLO 205,> 100000 nM (inactive)
COc1cc(C2c3cc4c(cc3[C@H](NS(C)(=O)=O)C3COC(=O)[C@H]23)OCO4)cc(OC)c1OC (some centres undefined),GI50,UACC-257,612 nM (active)
same,GI50,TK-10,> 100000 nM (inactive)
same,GI50,SK-MEL-2,> 100000 nM (inactive)
same,GI50,OVCAR-8,439 nM (active)
same,GI50,UACC-62,162 nM (active)
same,GI50,SR,251 nM (active)
same,GI50,DMS-273,297 nM (active)
same,GI50,LOX IMVI,419 nM (active)
same,GI50,786-0,471 nM (active)
same,GI50,SF-539,165 nM (active)
same,GI50,KM12,108 nM (active)
same,GI50,CCRF-CEM,444 nM (active)
same,GI50,DLD-1,592 nM (active)
same,GI50,OVCAR-5,> 100000 nM (inactive)
same,GI50,KM-20L2,162 nM (active)
same,GI50,HOP-18,> 100000 nM (inactive)
same,GI50,DMS-114,226 nM (active)
same,GI50,HCC 2998,435 nM (active)
same,GI50,UO-31,9350 nM (inactive)
same,GI50,U-251,327 nM (active)
same,GI50,NCI-H460,615 nM (active)
same,GI50,SF-268,778 nM (active)
same,GI50,RPMI-8226,394 nM (active)
same,GI50,HOP-62,177 nM (active)
same,GI50,SN12C,482 nM (active)
same,GI50,HCT-15,448 nM
same,GI50,MOLT-4,418 nM (active)
same,GI50,NCI-H522,67.1 nM (active)
same,GI50,Malme-3M,> 100000 nM (inactive)
same,GI50,HL-60,253 nM (active)
same,GI50,HT-29,340 nM (active)
same,GI50,ACHN,510 nM (active)
same,GI50,NCI-H226,177 nM (active)
same,GI50,XF498,560 nM (active)
same,GI50,K562,415 nM (active)
same,GI50,LXFL 529,731 nM (active)
same,GI50,M14,426 nM (active)
same,GI50,NCI-H23,223 nM (active)
same,GI50,COLO 205,186 nM (active)
